Assay results taken from PubChem BioAssay AID1963875 (Molecular Pharmacology Branch, DTP, NCI, 2024).

Test system: KRAS-mutant PDC complex spheroid viability
Assay: Anticancer human tumor 186277-243-T-J2-PDC patient-derived colon adenocarcinoma cell line growth inhibition [KRAS2]
Conditions: for IC50: curve of first compound; for viability, T/C: stronger effect = lower value
Procedure, shortened: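 KRAS-mutant tumor cells were grown as spheroids with HUVEC endothelial cells and human MSCs as stroma. Targeted agents were tested alone and with KRAS pathway inhibitors. Doses started at or near clinical Cmax, or 10 microM, descending half-log.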

[1] = second compound 0.1 µM, first compound 0.0316 µM
[2] = second compound 0.1 µM, first compound 0.1 µM
[3] = second compound 0.1 µM, first compound 0.316 µM
[4] = second compound 0.1 µM, first compound 1 µM
[5] = second compound 0.1 µM, first compound 3.16 µM
[6] = second compound 0.1 µM, first compound 10 µM
[7] = second compound 0.316 µM, first compound 0.0316 µM
[8] = second compound 0.316 µM, first compound 0.1 µM
[9] = second compound 0.316 µM, first compound 0.316 µM
[10] = second compound 0.316 µM, first compound 1 µM
[11] = second compound 0.316 µM, first compound 3.16 µM
[12] = second compound 0.316 µM, first compound 10 µM
[13] = second compound 1 µM, first compound 0.0316 µM
[14] = second compound 1 µM, first compound 0.1 µM
[15] = second compound 1 µM, first compound 0.316 µM
[16] = second compound 1 µM, first compound 1 µM
[17] = second compound 1 µM, first compound 3.16 µM
[18] = second compound 1 µM, first compound 10 µM
[19] = second compound 3.16 µM, first compound 0.0316 µM
[20] = second compound 3.16 µM, first compound 0.1 µM
[21] = second compound 3.16 µM, first compound 0.316 µM
[22] = second compound 3.16 µM, first compound 1 µM
[23] = second compound 3.16 µM, first compound 3.16 µM
[24] = second compound 3.16 µM, first compound 10 µM
[25] = second compound 10 µM, first compound 0.0316 µM
[26] = second compound 10 µM, first compound 0.1 µM
[27] = second compound 10 µM, first compound 0.316 µM
[28] = second compound 10 µM, first compound 1 µM
[29] = second compound 10 µM, first compound 3.16 µM
[30] = second compound 10 µM, first compound 10 µM
[31] = second compound 0.1 µM, first compound 0.00316 µM
[32] = second compound 0.1 µM, first compound 0.01 µM
[33] = second compound 0.316 µM, first compound 0.00316 µM
[34] = second compound 0.316 µM, first compound 0.01 µM
[35] = second compound 1 µM, first compound 0.00316 µM
[36] = second compound 1 µM, first compound 0.01 µM
[37] = second compound 3.16 µM, first compound 0.00316 µM
[38] = second compound 3.16 µM, first compound 0.01 µM
[39] = second compound 10 µM, first compound 0.00316 µM
[40] = second compound 10 µM, first compound 0.01 µM
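Throughout, for viability, T/C: viability read after seven days of compound exposure; 100% = DMSO vehicle-treated spheroids so lower means less viable.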

SMILES | IC50 (second compound 0.1 µM) [µM] | IC50 (second compound 0.316 µM) [µM] | IC50 (second compound 1 µM) [µM] | IC50 (second compound 3.16 µM) [µM] | IC50 (second compound 10 µM) [µM] | viability, T/C [1] [%] | viability, T/C [2] [%] | viability, T/C [3] [%] | viability, T/C [4] [%] | viability, T/C [7] [%] | viability, T/C [8] [%] | viability, T/C [9] [%] | viability, T/C [10] [%] | viability, T/C [13] [%] | viability, T/C [14] [%] | viability, T/C [15] [%] | viability, T/C [19] [%] | viability, T/C [20] [%] | viability, T/C [25] [%] | viability, T/C [26] [%] | further results
CC(C)NCC(C(=O)N1CCN(c2ncnc3c2C(C)CC3O)CC1)c1ccc(Cl)cc1 (stereo not given) + CC1OCC2(CCN(c3cnc(Sc4ccnc(N)c4Cl)c(N)n3)CC2)C1N | 0.498 | 0.389 | 0.268 | 0.134 | 0.0572 | 110 | 98.2 | 55.2 | 34.9 | 134 | 96.9 | 54.3 | 26.5 | 115 | 94 | 41.5 | 86.5 | 58.3 | 65.1 | 35.8 | viability, T/C [5]: 25.7%; viability, T/C [6]: 9.35%; viability, T/C [11]: 17.3%; viability, T/C [12]: 7.17%; viability, T/C [16]: 16%; viability, T/C [17]: 10.7%; viability, T/C [18]: 4.01%; viability, T/C [21]: 25.6%; viability, T/C [22]: 8.57%; viability, T/C [23]: 3.93%; viability, T/C [24]: 2.37%; viability, T/C [27]: 9.46%; viability, T/C [28]: 3.07%; viability, T/C [29]: 1.79%; viability, T/C [30]: 1.34%
CC1(C)CCC(CN2CCN(c3ccc(C(=O)NS(=O)(=O)c4ccc(NCC5CCOCC5)c([N+](=O)[O-])c4)c(Oc4cnc5[nH]ccc5c4)c3)CC2)=C(c2ccc(Cl)cc2)C1 + CC1OCC2(CCN(c3cnc(Sc4ccnc(N)c4Cl)c(N)n3)CC2)C1N | 2.27 | 2.35 | 2.13 | 1.75 | 1.55 | 103 | 115 | 127 | 120 | 128 | 136 | 130 | 130 | 140 | 115 | 113 | 98.9 | 112 | 80.1 | 82.7 | viability, T/C [5]: 23.1%; viability, T/C [6]: 0.76%; viability, T/C [11]: 22.1%; viability, T/C [12]: 0.38%; viability, T/C [16]: 116%; viability, T/C [17]: 16%; viability, T/C [18]: 0.34%; viability, T/C [21]: 100%; viability, T/C [22]: 93.8%; viability, T/C [23]: 3.38%; viability, T/C [24]: 0.22%; viability, T/C [27]: 87.7%; viability, T/C [28]: 79%; viability, T/C [29]: 2.4%; viability, T/C [30]: 0.21%
CCN1CCN(Cc2ccc(Nc3ncc(F)c(-c4cc(F)c5nc(C)n(C(C)C)c5c4)n3)nc2)CC1 + CC1OCC2(CCN(c3cnc(Sc4ccnc(N)c4Cl)c(N)n3)CC2)C1N | > 1 | 0.839 | 0.574 | 0.326 | 0.102 | 113 | 148 | 161 | 60.8 | 138 | 155 | 125 | 36.8 | 138 | 125 | 82.3 | 97 | 85.1 | 67 | 56.8 | viability, T/C [31]: 96.9%; viability, T/C [32]: 88.9%; viability, T/C [33]: 95.2%; viability, T/C [34]: 98.7%; viability, T/C [35]: 88.8%; viability, T/C [36]: 118%; viability, T/C [16]: 19.9%; viability, T/C [37]: 113%; viability, T/C [38]: 130%; viability, T/C [21]: 52.2%; viability, T/C [22]: 8.29%; viability, T/C [39]: 123%; viability, T/C [40]: 92.3%; viability, T/C [27]: 28.7%; viability, T/C [28]: 3.85%
Cn1ncnc1[C@H]1c2n[nH]c(=O)c3cc(F)cc(c23)N[C@@H]1c1ccc(F)cc1 + CC1OCC2(CCN(c3cnc(Sc4ccnc(N)c4Cl)c(N)n3)CC2)C1N | > 0.1 | > 0.1 | 0.0892 | 0.0187 | 0.00416 | 84.2 | 62.3 |  |  | 76.8 | 58.1 |  |  | 62.4 | 50.6 |  | 41.5 | 36 | 31.5 | 25.4 | viability, T/C (second compound 0.1 µM, first compound 0.000316 µM): 107%; viability, T/C (second compound 0.1 µM, first compound 0.001 µM): 116%; viability, T/C [31]: 110%; viability, T/C [32]: 90.5%; viability, T/C (second compound 0.316 µM, first compound 0.000316 µM): 126%; viability, T/C (second compound 0.316 µM, first compound 0.001 µM): 120%; viability, T/C [33]: 104%; viability, T/C [34]: 84.3%; viability, T/C (second compound 1 µM, first compound 0.000316 µM): 119%; viability, T/C (second compound 1 µM, first compound 0.001 µM): 103%; viability, T/C [35]: 89.4%; viability, T/C [36]: 71.4%; viability, T/C (second compound 3.16 µM, first compound 0.000316 µM): 81.9%; viability, T/C (second compound 3.16 µM, first compound 0.001 µM): 85.6%; viability, T/C [37]: 76.3%; viability, T/C [38]: 60.2%; viability, T/C (second compound 10 µM, first compound 0.000316 µM): 66.7%; viability, T/C (second compound 10 µM, first compound 0.001 µM): 68.4%; viability, T/C [39]: 49.4%; viability, T/C [40]: 41.3%
